The results in this text go back to patent US4479962A, “Indazoloxypropanolamine derivatives and use in combating, and for the prophylaxis of, cardiac and circulatory diseases” (Boehringer Mannheim GmbH, priority 1981, dated 1984).

For this assay, the system named is left ventricle. The experiment in a line: Cardiotonic effect in wake dogs, left ventricular dp/dt, in relation to isoprenalin. In kind it is in vivo. The note with it: intravenous, wake mongrel dogs, average of two to four individual tests; for ED50: Canis lupus familiaris, increasing dosage in intervals of ten minutes, read-out: ED50 (dosage which achieves one-half of the maximum effect), dp/dt; for dp/dt (%) of 0.3/μg/kg Isoprenalin i.v. (maximum achievable effect in comparison to isoprenalin): relative to 0.3 μg/kg isoprenalin i.v. On the procedure: For the tests, mongrel dogs of both sexes were used. In a preparatory operation, catheters had been inserted under aseptic conditions into the Arteria and Vena femoralis and, through the myocardium, into the left ventricle. The tests were begun not less than ten days after this operation, when the animals were again in a clinically healthy state. Throughout the test, during which the animals were wake, the arterial blood pressure was determined by means of a catheter and an electromechanical transducer. In addition, the pressure in the left ventricle was continuously measured by means of a tip manometer which had been introduced into the ventrical catheter and advanced as far as the heart, and from that pressure the differentiation based on the time dp/dt max was determined. The heart rate (f cor) was computed by counting the heart beats at a fast chart speed at given times of measurement. At the beginning of the experiments the animals were injected intravenously with 0.3 μg/kg of isoprenalin and the effect on the rapidity of the pressure increase recorded. After dissipation of this injection the test compounds were injected intravenously in increasing dosage rates in intervals of ten minutes and again the effect of each dosage level determined. For the characterization of the effectiveness of the test compounds two criteria were calculated: 1. The termination of the achievable maximum effect in comparison to isoprenalin. The maximum achievable effect of the test compound was compared to that of isoprenalin. (The higher the value, the stronger the effect.) 2. From the logarithm of the injected dosages and the effect after injection, the dosage was determined which achieves one-half of the maximum effect (ED 50). […]

Regarding `Cc1cccc(C)c1NCCNCC(O)COc1cccc2c1CCN2C=O` (centres unmarked) [1-(1-formylindolin-4-yloxy)-3-[2-(2,6-dimethylphenylamino)-ethylamino]-propan-2-ol], the ED50 came out at 4.2 µg/kg and the “dp/dt (%) of 0.3/μg/kg Isoprenalin i.v. (maximum achievable effect in comparison to isoprenalin)” value (shortened to “dp/dt (%)”) came out at 87%.
Taken in the same sequence, the figures for `Cc1cccc(C)c1NCCNCC(O)COc1cccc2[nH]nnc12.Cl.Cl` (centres unmarked) [1-(Benztriazol-4-yloxy)-3-[2-(2,6-dimethylphenylamino)-ethylamino]-propan-2-ol dihydrochloride] were 3.5 µg/kg and 100%.
Taken in the same sequence, the figures for `Cc1cccc(C)c1NCCNCC(O)COc1cccc2[nH]ncc12` (centres unmarked) [1-(Indazol-4-yloxy)-3-[2-(2,6-dimethylphenylamino)ethylamino]-propan-2-ol] were 2.2 µg/kg and 87%.
Taken in the same sequence, the figures for `Cc1cccc(C)c1NCCNCC(O)COc1cccc2[nH]ccc12.O=C(O)O` (centres unmarked) [1-(Indol-4-yloxy)-3-[2-(2,6-dimethylphenylamino)-ethylamino]-propan-2-ol dihydrogen carbonate] were 3.2 µg/kg and 85%.
In the case of `O=[N+]([O-])c1cccc(NCCNCC(O)COc2cccc3[nH]ncc23)c1` (centres unmarked) [1-(indazol-4-yloxy)-3-[2-(3-nitrophenylamino)-ethylamino]-propan-2-ol], the ED50 worked out at 2 µg/kg and the “dp/dt (%)” value came out at 66%.
In the case of `OC(CNCCNc1cccc2c1CCC2)COc1cccc2[nH]ncc12` (centres unmarked) [1-(indazol-4-yloxy)-3-[2-(indanyl-4-amino)-ethylamino]-propan-2-ol], the ED50 amounted to 4.9 µg/kg and the “dp/dt (%)” value was 83%.
`Cc1cccc(C)c1NCCCNCC(O)COc1cccc2[nH]ncc12` (centres unmarked) [1-(indazol-4-yloxy)-3-[3-2,6-dimethylphenylamino)-propylamino]-propan-2-ol]: the ED50 was 4.2 µg/kg and the “dp/dt (%)” value amounted to 110%.
